Where a name gives a salt, the structure may show the parent alone.
Tested on: CYR61 gene expression
Assay: CYR61 gene expression in ARPE-19/HPV16 cells treated for 24 hours, Affymetrix probe sets
Format: cell-based, human
Parameters: amplitude: scale not given here
Conditions: 10 uM; for Fold (CYR61 Downregulation): versus vehicle
Experimental: In a study leading to embodiments of the invention, a human retinal pigment epithelial cell line (ARPE-19/HPV16) was separately treated with an anthracycline (doxorubicin or daunorubicin), a statin (simvastatin or lovastatin), or vehicle for 24 hours and gene expression for […] probe sets covering 12,490 genes was generated using an Affymetrix instrument. The effects of these compounds on the expression of CYR61 are shown below in Table 1.

| SMILES | Rank (probe 201289_at) | amplitude (probe 201289_at) | Fold (CYR61 Downregulation) (probe 201289_at) | Rank (probe 210764_s_at) | amplitude (probe 210764_s_at) | Fold (CYR61 Downregulation) (probe 210764_s_at) |
| --- | --- | --- | --- | --- | --- | --- |
| COc1cccc2c1C(=O)c1c(O)c3c(c(O)c1C2=O)C[C@@](O)(C(C)=O)C[C@@H]3O[C@H]1C[C@H](N)[C@H](O)[C@H](C)O1 [Daunorubicin HCl] | 22278 | −1.921 | −49.81 | 22239 | −1.8272 | −22.15 |
| COc1cccc2c1C(=O)c1c(O)c3c(c(O)c1C2=O)C[C@@](O)(C(=O)CO)C[C@@H]3O[C@H]1C[C@H](N)[C@H](O)[C@H](C)O1 [Doxorubicin HCl] | 22282 | −1.967 | −118.5 | 22272 | −1.925 | −52.26 |
| CC(=O)[C@]1(O)Cc2c(O)c3c(c(O)c2[C@@H](O[C@H]2C[C@H](N)[C@H](O)[C@H](C)O2)C1)C(=O)c1ccccc1C3=O [Idarubicin HCl] | 22273 | −1.899 | −38.72 | 22267 | −1.875 | −31.13 |
| CC[C@H](C)C(=O)O[C@H]1C[C@@H](C)C=C2C=C[C@H](C)[C@H](CC[C@@H]3C[C@@H](O)CC(=O)O3)[C@H]21 [Lovastatin] | 22271 | −1.412 | −5.799 | 22264 | −1.297 | −4.687 |
| CCC(C)(C)C(=O)O[C@H]1C[C@@H](C)C=C2C=C[C@H](C)[C@H](CC[C@@H]3C[C@@H](O)CC(=O)O3)[C@H]21 [Simvastatin] | 22255 | −1.378 | −5.428 | 22262 | −1.3931 | −5.591 |
